Tested on: HepG2 cells
Assay: RNA-seq transcriptome analysis of differentially expressed genes
Type: cell-based, human
Conditions: BCP vs control HepG2
Description: The quality and concentration of RNA were examined by MOPS RNA electrophoresis and Eppendorf BioSpectrometer. The transcriptome analysis was performed by BGI-Wuhan China. The RNA-seq dataset of this study is accessible in the Gene Expression Omnibus (GEO) with an access number of GSE276099. The sequence library for each sample was prepared using the BGISEQ-500 platform with a 50-bp single-end (SE50) format. […]2.2.1) was used to align the clean reads to the reference genome and alignment of the clean reads to the reference genes was carried out using Bowtie2 (v2.4.5) ([Langmead and Salzberg, 2012]; [Kim et al., 2015]). Gene expression levels were calculated by RSEM (v1.3.1) ([Li and Dewey, 2011]). Analysis of differential gene expression was performed using edgeR in the Bioconductor software package ([Robinson et al., 2010]). Using a standard protocol, the RNA samples were also examined by reverse transcription and quantitative polymerase chain reaction (RT-qPCR). In brief, for reverse transcription, total RNA (1 μg) and gDNA wiper Mix were incubated at 42°C for 2 min. The samples were immediately incubated with a master mix containing 10 pmol/μL of poly (dT) primers at 37°C for 15 min and 85°C for 5 s. To detect the expression of specific genes by qPCR analysis, gene-specific primers (shown in Supplementary Table S1) were mixed with the ChamQ Universal SYBER qPCR Master Mix and the reaction was conducted using the Roche Lightcycler 480. The GAPDH value was used to normalize the results of each gene. The RNA-seq data of BCP-treated HepG2 cells were screened for DEGs. Gene symbols were turned into Enterz ID using the org.Hs.eg.db Bio-conductor R package. The cluster profiler (v4.6.2) package was used to perform the Kyoto Encyclopedia of Genes and Genomes (KEGG) and Gene Ontology (GO) enrichment analyses ([Wu et al., 2021]). Following the Transcript per million (TPM) data of the dataset, the line chart, and heatmap were plotted using ggplot2 and pheatmap R packages, respectively.

## C=C1CC/C=C(\C)CC[C@@H]2[C@@H]1CC2(C)C [BCP, β-caryophyllene]
Gene APOBEC3C, RNA-seq
  logFC APOBEC3C: -0.5856
Gene APOBEC3C, DEG direction
  change APOBEC3C: Down
Gene ARRB1, RNA-seq
  logFC ARRB1: -0.7626
Gene ARRB1, DEG direction
  change ARRB1: Down
Gene ATP9A, RNA-seq
  logFC ATP9A: 0.6507
Gene ATP9A, DEG direction
  change ATP9A: Up
Gene ATP11C, RNA-seq
  logFC ATP11C: -0.7847
Gene ATP11C, DEG direction
  change ATP11C: Down
Gene AXIN2, RNA-seq
  logFC AXIN2: 0.6672
Gene AXIN2, DEG direction
  change AXIN2: Up
Gene B4GALNT4, RNA-seq
  logFC B4GALNT4: -0.5947
Gene B4GALNT4, DEG direction
  change B4GALNT4: Down
Gene BACE2, RNA-seq
  logFC BACE2: 0.7147
Gene BACE2, DEG direction
  change BACE2: Up
Gene BICDL1, RNA-seq
  logFC BICDL1: -0.8616
Gene BICDL1, DEG direction
  change BICDL1: Down
Gene BIRC7, RNA-seq
  logFC BIRC7: 0.7538
Gene BIRC7, DEG direction
  change BIRC7: Up
Gene BIVM-ERCC5, RNA-seq
  logFC BIVM-ERCC5: 0.699
Gene BIVM-ERCC5, DEG direction
  change BIVM-ERCC5: Up
Gene BLCAP, RNA-seq
  logFC BLCAP: -0.6138
Gene BLCAP, DEG direction
  change BLCAP: Down
Gene BMP2, RNA-seq
  logFC BMP2: 0.7686
Gene BMP2, DEG direction
  change BMP2: Up
Gene BUB1B-PAK6, RNA-seq
  logFC BUB1B-PAK6: -1.6183
Gene BUB1B-PAK6, DEG direction
  change BUB1B-PAK6: Down
Gene C1orf198, RNA-seq
  logFC C1orf198: 0.6
Gene C1orf198, DEG direction
  change C1orf198: Up
Gene C1orf216, RNA-seq
  logFC C1orf216: -0.8102
Gene C1orf216, DEG direction
  change C1orf216: Down
Gene C3orf80, RNA-seq
  logFC C3orf80: -1.174
Gene C3orf80, DEG direction
  change C3orf80: Down
Gene C4B, RNA-seq
  logFC C4B: 2.54
Gene C4B, DEG direction
  change C4B: Up
Gene C11orf86, RNA-seq
  logFC C11orf86: -1.473
Gene C11orf86, DEG direction
  change C11orf86: Down
Gene C19orf71, RNA-seq
  logFC C19orf71: 0.8161
Gene C19orf71, DEG direction
  change C19orf71: Up
Gene CA5B, RNA-seq
  logFC CA5B: -1.2201
Gene CA5B, DEG direction
  change CA5B: Down
Gene CARD6, RNA-seq
  logFC CARD6: -1.5314
Gene CARD6, DEG direction
  change CARD6: Down
Gene CCDC24, RNA-seq
  logFC CCDC24: 1.127
Gene CCDC24, DEG direction
  change CCDC24: Up
Gene CCDC86, RNA-seq
  logFC CCDC86: -0.7779
Gene CCDC86, DEG direction
  change CCDC86: Down
Gene CCL2, RNA-seq
  logFC CCL2: -1.48
Gene CCL2, DEG direction
  change CCL2: Down
Gene CCL5, RNA-seq
  logFC CCL5: -1.124
Gene CCL5, DEG direction
  change CCL5: Down
Gene CCL26, RNA-seq
  logFC CCL26: -1.513
Gene CCL26, DEG direction
  change CCL26: Down
Gene CELF2, RNA-seq
  logFC CELF2: 0.8875
Gene CELF2, DEG direction
  change CELF2: Up
Gene CHST2, RNA-seq
  logFC CHST2: -1.145
Gene CHST2, DEG direction
  change CHST2: Down
Gene CKAP2L, RNA-seq
  logFC CKAP2L: 0.6857
Gene CKAP2L, DEG direction
  change CKAP2L: Up
Gene CLDN2, RNA-seq
  logFC CLDN2: 1.355
Gene CLDN2, DEG direction
  change CLDN2: Up
Gene CLIP2, RNA-seq
  logFC CLIP2: -0.6426
Gene CLIP2, DEG direction
  change CLIP2: Down
Gene CLK1, RNA-seq
  logFC CLK1: 0.5953
Gene CLK1, DEG direction
  change CLK1: Up
Gene CLTCL1, RNA-seq
  logFC CLTCL1: 0.7125
Gene CLTCL1, DEG direction
  change CLTCL1: Up
Gene COL1A1, RNA-seq
  logFC COL1A1: 0.6324
Gene COL1A1, DEG direction
  change COL1A1: Up
Gene COL4A1, RNA-seq
  logFC COL4A1: 0.7663
Gene COL4A1, DEG direction
  change COL4A1: Up
Gene COL7A1, RNA-seq
  logFC COL7A1: 0.6003
Gene COL7A1, DEG direction
  change COL7A1: Up
Gene CPM, RNA-seq
  logFC CPM: 0.6061
Gene CPM, DEG direction
  change CPM: Up
Gene CPS1, RNA-seq
  logFC CPS1: 0.6121
Gene CPS1, DEG direction
  change CPS1: Up
Gene CRABP2, RNA-seq
  logFC CRABP2: -0.6843
Gene CRABP2, DEG direction
  change CRABP2: Down
Gene CREB3L4, RNA-seq
  logFC CREB3L4: 0.5981
Gene CREB3L4, DEG direction
  change CREB3L4: Up
Gene CREG2, RNA-seq
  logFC CREG2: 0.6638
Gene CREG2, DEG direction
  change CREG2: Up
Gene CRELD1, RNA-seq
  logFC CRELD1: 0.9439
Gene CRELD1, DEG direction
  change CRELD1: Up
Gene CSRP2, RNA-seq
  logFC CSRP2: 0.7909
Gene CSRP2, DEG direction
  change CSRP2: Up
Gene CYP1A1, RNA-seq
  logFC CYP1A1: -0.7093
Gene CYP1A1, DEG direction
  change CYP1A1: Down
Gene CYP3A5, RNA-seq
  logFC CYP3A5: -1.0618
Gene CYP3A5, DEG direction
  change CYP3A5: Down
Gene CYP3A7, RNA-seq
  logFC CYP3A7: -2.402
Gene CYP3A7, DEG direction
  change CYP3A7: Down
Gene CYP11A1, RNA-seq
  logFC CYP11A1: -1.306
Gene CYP11A1, DEG direction
  change CYP11A1: Down
Gene CYP26B1, RNA-seq
  logFC CYP26B1: -0.8298
Gene CYP26B1, DEG direction
  change CYP26B1: Down
Gene DAAM1, RNA-seq
  logFC DAAM1: -0.6083
Gene DAAM1, DEG direction
  change DAAM1: Down
Gene DDIT3, RNA-seq
  logFC DDIT3: 0.9459
Gene DDIT3, DEG direction
  change DDIT3: Up
Gene DDR2, RNA-seq
  logFC DDR2: 0.7117
Gene DDR2, DEG direction
  change DDR2: Up
Gene DENND2D, RNA-seq
  logFC DENND2D: -1.958
Gene DENND2D, DEG direction
  change DENND2D: Down
Gene DEPDC1, RNA-seq
  logFC DEPDC1: 0.5867
Gene DEPDC1, DEG direction
  change DEPDC1: Up
Gene DGKD, RNA-seq
  logFC DGKD: 0.5855
Gene DGKD, DEG direction
  change DGKD: Up
Gene DLG2, RNA-seq
  logFC DLG2: -1.169
Gene DLG2, DEG direction
  change DLG2: Down
Gene DNER, RNA-seq
  logFC DNER: 1.171
Gene DNER, DEG direction
  change DNER: Up
Gene DOCK4, RNA-seq
  logFC DOCK4: -0.9058
Gene DOCK4, DEG direction
  change DOCK4: Down
Gene EFNB2, RNA-seq
  logFC EFNB2: -0.688
Gene EFNB2, DEG direction
  change EFNB2: Down
Gene EGLN3, RNA-seq
  logFC EGLN3: -0.764

Reference: publication PMC11671526, “β-caryophyllene sensitizes hepatocellular carcinoma cells to chemotherapeutics and inhibits cell malignancy through targeting MAPK signaling pathway” (Frontiers in Pharmacology, 2024)
